Where two headings read alike, the source gives them in different places. Bridge positions count the residues as written; N and C are the ends. Square brackets hold non-standard residues; d marks the D form. Peptide text beside a SMILES is read from it. tBuAla = CC(C)(C)C[C@H](N)C(=O)O
What was measured:
endothelin receptor = assay: Assay of affinity for receptor (inhibition of 125I-ET-1 binding to porcine myocardial membrane fraction); settings: relative to ET-1 = 100
Procedure: Assay of Affinity for Receptor
A membrane fraction prepared from the porcine heart was diluted to 0.15 mg/ml by using a buffer solution for assay, and 100 μl of the resulting suspension of the membrane fraction was poured into each assay tube to use for assay. To this suspension of the membrane fraction was added 2 μl of 5 nM ^125 I labeled endothelin-1 solution. Further, 3 μl of a test peptide solution was added thereto, followed by incubation at a temperature of 25° C. for 1 hour. Then, the resulting suspension was diluted with 900 μl of the buffer solution for assay cooled with ice, and thereafter separated into a supernatant and a precipitate by centrifugation at 12,000×g for 10 minutes. Cell membranes and an endothelin receptor embedded therein were contained in the precipitate, and radioactive iodine-labeled endothelin combined with the receptor was also recovered in the precipitate. Accordingly, the amount of radioactive iodine-labeled endothelin combined with the endothelin receptor was determined by measuring the amount of radioactive iodine contained in the precipitate with a gamma-ray counter.

[1] = system: porcine coronary smooth muscles
Procedure: (1) Assay of Constrictor Suppressing Activity on Porcine Coronary Smooth Muscles
(§1) Spiral strips 2 mm×15 mm prepared from the coronary right ramus circumflexus from which the adventitial connective tissues and the endothelial cells were removed were set to 4 ml organ baths. The tension of each strip was detected by a force displacement transducer UL-10GR (Minebea), and recorded by a polygraph (NEC Sanei). The organ baths were maintained at 37° C., and filled with a Krebs-Henseleit solution (composition: 118 mM NaCl, 4.7 mM KCl, 2.5 mM CaCl2, 1.2 mM KH2 PO4, 25.0 mM NaHCO3, 1.2 mM MgSO4, 10.0 mM glucose) gassed with 95% O2 and 5% CO2.
(§2) A tension of 1.25 to 1.5 g was applied to each of the strips, followed by equilibration for 1.5 hours. 60 mM KCl was repeatedly applied thereto at intervals of 30 minutes until the constriction response became constant. After additional equilibration for 1.5 hours, a sample for assay was given thereto. The constriction of the strips was normalized by the constriction response of the individual strips to 60 mM KCl and statistically processed.
pA2 is a negative logarithm value of a molar concentration of a competitive antagonist necessary for shifting in parallel a dose response curve for an active drug (for example, ET-1) alone to the high dose side by a factor of 2.

porcine coronary artery = assay: Constrictor activity on porcine coronary smooth muscles; settings: for Maximum constriction (% 60 mM KCl): porcine coronary artery strips, normalized to 60 mM KCl response; for Constrictor activity (specific activity): relative to ET-1 = 100, porcine coronary artery
Procedure: as §1, §2
(2) As to the antagonistic property of the peptides of the present invention to endothelin, the affinity for an endothelin receptor and the constrictor activity on porcine coronary smooth muscles (according to the method described in (1) described above) were assayed. The affinity for the receptor was assayed by the following method.

[2] = against cumulative endothelin-1, porcine coronary smooth muscles

CC[C@H](C)[C@H](NC(=O)[C@H](CC(C)C)NC(=O)[C@H](CO)NC(=O)[C@H](CC(C)C)NC(=O)[C@H](Cc1c[nH]cn1)NC(=O)[C@@H]1CSSC[C@H](N)C(=O)N[C@@H](CO)C(=O)N[C@H]2CSSC[C@H](NC(=O)[C@H](CCC(=O)O)NC(=O)[C@H](CCCCN)NC(=O)[C@H](CC(=O)O)NC(=O)[C@H](CCSC)NC(=O)[C@H](CC(C)C)NC(=O)[C@H](CO)NC(=O)[C@H](CO)NC2=O)C(=O)N[C@@H](C(C)C)C(=O)N[C@@H](Cc2ccc(O)cc2)C(=O)N[C@@H](Cc2ccccc2)C(=O)N1)C(=O)N[C@@H](Cc1c[nH]c2ccccc12)C(=O)O [Example 6, [Ser^18, Leu^19]-ET-1] (H-CSCSSLMDKECVYFCHLSLIW-OH; disulfide 1-15, 3-11)
Receptor binding activity (specific activity) (endothelin receptor): 15
Relative potency [1]: 63
pA2 [1]: 7.5
Maximum constriction (% 60 mM KCl) (porcine coronary artery): 1 % 60 mM KCl
Constrictor activity (specific activity) (porcine coronary artery): < 0.1

CC[C@H](C)[C@H](NC(=O)[C@H](CC(C)C)NC(=O)[C@@H](NC(=O)[C@H](CC(C)C)NC(=O)[C@H](Cc1c[nH]cn1)NC(=O)[C@@H]1CSSC[C@H](N)C(=O)N[C@@H](CO)C(=O)N[C@H]2CSSC[C@H](NC(=O)[C@H](CCC(=O)O)NC(=O)[C@H](CCCCN)NC(=O)[C@H](CC(=O)O)NC(=O)[C@H](CCSC)NC(=O)[C@H](C)NC(=O)[C@H](CO)NC(=O)[C@H](CO)NC2=O)C(=O)N[C@@H](C(C)C)C(=O)N[C@@H](Cc2ccc(O)cc2)C(=O)N[C@@H](Cc2ccccc2)C(=O)N1)[C@@H](C)O)C(=O)N[C@@H](Cc1c[nH]c2ccccc12)C(=O)O [Example 15, [Ala^6, Thr^18, Leu^19]-ET-1] (H-CSCSSAMDKECVYFCHLTLIW-OH; disulfide 1-15, 3-11)
Receptor binding activity (specific activity) (endothelin receptor): 11
Relative potency [1]: 6
pA2 [1]: 6.5
Maximum constriction (% 60 mM KCl) (porcine coronary artery): 7 % 60 mM KCl
Constrictor activity (specific activity) (porcine coronary artery): < 0.1

CC[C@H](C)[C@H](NC(=O)[C@H](CC(C)C)NC(=O)[C@@H](NC(=O)[C@H](CC(C)C)NC(=O)[C@H](Cc1c[nH]cn1)NC(=O)[C@@H]1CSSC[C@H](N)C(=O)N[C@@H](C)C(=O)N[C@H]2CSSC[C@H](NC(=O)[C@H](CCC(=O)O)NC(=O)[C@H](CCCCN)NC(=O)[C@H](CC(=O)O)NC(=O)[C@H](CCSC)NC(=O)[C@H](CC(C)C)NC(=O)[C@H](CO)NC(=O)[C@H](CO)NC2=O)C(=O)N[C@@H](C(C)C)C(=O)N[C@@H](Cc2ccc(O)cc2)C(=O)N[C@@H](Cc2ccccc2)C(=O)N1)[C@@H](C)O)C(=O)N[C@@H](Cc1c[nH]c2ccccc12)C(=O)O [Example 12, [Ala^2, Thr^18, Leu^19]-ET-1] (H-CACSSLMDKECVYFCHLTLIW-OH; disulfide 1-15, 3-11)
Receptor binding activity (specific activity) (endothelin receptor): 32
pA2 [1]: 6.7
Maximum constriction (% 60 mM KCl) (porcine coronary artery): 5 % 60 mM KCl
Constrictor activity (specific activity) (porcine coronary artery): < 0.1

CC[C@H](C)[C@H](NC(=O)[C@H](CC(C)(C)C)NC(=O)[C@@H](NC(=O)[C@H](CC(C)C)NC(=O)[C@H](Cc1c[nH]cn1)NC(=O)[C@@H]1CSSC[C@H](N)C(=O)N[C@@H](CO)C(=O)N[C@H]2CSSC[C@H](NC(=O)[C@H](CCC(=O)O)NC(=O)[C@H](CCCCN)NC(=O)[C@H](CC(=O)O)NC(=O)[C@H](CCSC)NC(=O)[C@H](CC(C)C)NC(=O)[C@H](CO)NC(=O)[C@H](CO)NC2=O)C(=O)N[C@@H](C(C)C)C(=O)N[C@@H](Cc2ccc(O)cc2)C(=O)N[C@@H](Cc2ccccc2)C(=O)N1)[C@@H](C)O)C(=O)N[C@@H](Cc1c[nH]c2ccccc12)C(=O)O [Example 4, [Thr^18, γLeu^19]-ET-1] (H-CSCSSLMDKECVYFCHLT[tBuAla]IW-OH; disulfide 1-15, 3-11)
Receptor binding activity (specific activity) (endothelin receptor): 23
pA2 [1, 2]: 7.4
Maximum constriction (% 60 mM KCl) (porcine coronary artery): 0 % 60 mM KCl
Constrictor activity (specific activity) (porcine coronary artery): < 0.1

CC[C@H](C)[C@H](NC(=O)[C@H](CC(C)C)NC(=O)[C@@H](NC(=O)[C@H](CC(C)C)NC(=O)[C@H](Cc1c[nH]cn1)NC(=O)[C@@H]1CSSC[C@H](N)C(=O)N[C@@H](CO)C(=O)N[C@H]2CSSC[C@H](NC(=O)[C@H](CCC(=O)O)NC(=O)[C@H](CCCCN)NC(=O)[C@H](CC(=O)O)NC(=O)[C@H](CCSC)NC(=O)[C@H](CC(C)C)NC(=O)[C@H](CO)NC(=O)[C@H](C)NC2=O)C(=O)N[C@@H](C(C)C)C(=O)N[C@@H](Cc2ccc(O)cc2)C(=O)N[C@@H](Cc2ccccc2)C(=O)N1)[C@@H](C)O)C(=O)N[C@@H](Cc1c[nH]c2ccccc12)C(=O)O [Example 13, [Ala^4, Thr^18, Leu^19]-ET-1] (H-CSCASLMDKECVYFCHLTLIW-OH; disulfide 1-15, 3-11)
Receptor binding activity (specific activity) (endothelin receptor): 57
pA2 [1]: 6.9
Maximum constriction (% 60 mM KCl) (porcine coronary artery): 6 % 60 mM KCl
Constrictor activity (specific activity) (porcine coronary artery): < 0.1

CC[C@H](C)[C@H](NC(=O)[C@H](CC(C)C)NC(=O)[C@@H](NC(=O)[C@H](CC(C)C)NC(=O)[C@H](Cc1c[nH]cn1)NC(=O)[C@@H]1CSSC[C@H](N)C(=O)N[C@@H](CO)C(=O)N[C@H]2CSSC[C@H](NC(=O)[C@H](CCC(=O)O)NC(=O)[C@H](CCCCN)NC(=O)[C@H](CC(=O)O)NC(=O)[C@H](C)NC(=O)[C@H](CC(C)C)NC(=O)[C@H](CO)NC(=O)[C@H](CO)NC2=O)C(=O)N[C@@H](C(C)C)C(=O)N[C@@H](Cc2ccc(O)cc2)C(=O)N[C@@H](Cc2ccccc2)C(=O)N1)[C@@H](C)O)C(=O)N[C@@H](Cc1c[nH]c2ccccc12)C(=O)O [Example 16, [Ala^7, Thr^18, Leu^19]-ET-1] (H-CSCSSLADKECVYFCHLTLIW-OH; disulfide 1-15, 3-11)
Receptor binding activity (specific activity) (endothelin receptor): 62
pA2 [1]: 7.2
Maximum constriction (% 60 mM KCl) (porcine coronary artery): 9 % 60 mM KCl
Constrictor activity (specific activity) (porcine coronary artery): < 0.1

CC[C@H](C)[C@H](NC(=O)[C@H](CC(C)C)NC(=O)CNC(=O)[C@H](CC(C)C)NC(=O)[C@H](Cc1c[nH]cn1)NC(=O)[C@@H]1CSSC[C@H](N)C(=O)N[C@@H](CO)C(=O)N[C@H]2CSSC[C@H](NC(=O)[C@H](CCC(=O)O)NC(=O)[C@H](CCCCN)NC(=O)[C@H](CC(=O)O)NC(=O)[C@H](CCSC)NC(=O)[C@H](CC(C)C)NC(=O)[C@H](CO)NC(=O)[C@H](CO)NC2=O)C(=O)N[C@@H](C(C)C)C(=O)N[C@@H](Cc2ccc(O)cc2)C(=O)N[C@@H](Cc2ccccc2)C(=O)N1)C(=O)N[C@@H](Cc1c[nH]c2ccccc12)C(=O)O [Example 8, [Gly^18, Leu^19]-ET-1] (H-CSCSSLMDKECVYFCHLGLIW-OH; disulfide 1-15, 3-11)
Receptor binding activity (specific activity) (endothelin receptor): 9.5
Relative potency [1]: 10
pA2 [1]: 6.7
Maximum constriction (% 60 mM KCl) (porcine coronary artery): 14 % 60 mM KCl
Constrictor activity (specific activity) (porcine coronary artery): < 0.1

CC[C@H](C)[C@H](NC(=O)[C@H](CC(C)C)NC(=O)[C@@H](NC(=O)[C@H](CC(C)C)NC(=O)[C@H](Cc1c[nH]cn1)NC(=O)[C@@H]1CSSC[C@H](N)C(=O)N[C@@H](CO)C(=O)N[C@H]2CSSC[C@H](NC(=O)[C@H](CCC(=O)O)NC(=O)[C@H](CCCCN)NC(=O)[C@H](CC(=O)O)NC(=O)[C@H](CCSC)NC(=O)[C@H](CC(C)C)NC(=O)[C@H](C)NC(=O)[C@H](CO)NC2=O)C(=O)N[C@@H](C(C)C)C(=O)N[C@@H](Cc2ccc(O)cc2)C(=O)N[C@@H](Cc2ccccc2)C(=O)N1)[C@@H](C)O)C(=O)N[C@@H](Cc1c[nH]c2ccccc12)C(=O)O [Example 14, [Ala^5, Thr^18, Leu^19]-ET-1] (H-CSCSALMDKECVYFCHLTLIW-OH; disulfide 1-15, 3-11)
Receptor binding activity (specific activity) (endothelin receptor): 8.6
Relative potency [1]: 0.6
pA2 [1]: 5.5
Maximum constriction (% 60 mM KCl) (porcine coronary artery): 6 % 60 mM KCl
Constrictor activity (specific activity) (porcine coronary artery): < 0.1

CC[C@H](C)[C@H](NC(=O)[C@H](CC(C)C)NC(=O)[C@@H](NC(=O)[C@H](CC(C)C)NC(=O)[C@H](Cc1c[nH]cn1)NC(=O)[C@@H]1CSSC[C@H](N)C(=O)N[C@@H](CO)C(=O)N[C@H]2CSSC[C@H](NC(=O)[C@H](CCC(=O)O)NC(=O)[C@H](CCCCN)NC(=O)[C@H](CC(=O)O)NC(=O)[C@H](CCSC)NC(=O)[C@H](CC(C)C)NC(=O)[C@H](CO)NC(=O)[C@H](CO)NC2=O)C(=O)N[C@@H](C(C)C)C(=O)N[C@@H](Cc2ccc(O)cc2)C(=O)N[C@@H](Cc2ccccc2)C(=O)N1)[C@@H](C)O)C(=O)N[C@@H](Cc1c[nH]c2ccccc12)C(=O)O [Example 1, [Thr^18, Leu^19]-ET-1] (H-CSCSSLMDKECVYFCHLTLIW-OH; disulfide 1-15, 3-11)
Receptor binding activity (specific activity) (endothelin receptor): 40
pA2 [1, 2]: 7.7
Maximum constriction (% 60 mM KCl) (porcine coronary artery): 4 % 60 mM KCl
Constrictor activity (specific activity) (porcine coronary artery): < 0.1
